Laboratory results from ChEMBL document CHEMBL1148271, “3-(2-pyrrolidin-1-ylethyl)-5-(1,2,3,6-tetrahydropyridin-4-yl)-1H-indole derivatives as high affinity human 5-HT(1B/1D) ligands” (Bioorg Med Chem Lett, 2004).

Columns and labels:
[1] = molecular target: 5-hydroxytryptamine receptor 1B (Homo sapiens, UniProt P28222); experiment: Binding affinity was evaluated at the cloned human 5-hydroxytryptamine 1B receptor
[2] = molecular target: 5-hydroxytryptamine receptor 1D (Homo sapiens, UniProt P28221); experiment: Binding affinity was evaluated at the cloned human 5-hydroxytryptamine 1D receptor
Sequence of 5-hydroxytryptamine receptor 1D (P28221 whole entry): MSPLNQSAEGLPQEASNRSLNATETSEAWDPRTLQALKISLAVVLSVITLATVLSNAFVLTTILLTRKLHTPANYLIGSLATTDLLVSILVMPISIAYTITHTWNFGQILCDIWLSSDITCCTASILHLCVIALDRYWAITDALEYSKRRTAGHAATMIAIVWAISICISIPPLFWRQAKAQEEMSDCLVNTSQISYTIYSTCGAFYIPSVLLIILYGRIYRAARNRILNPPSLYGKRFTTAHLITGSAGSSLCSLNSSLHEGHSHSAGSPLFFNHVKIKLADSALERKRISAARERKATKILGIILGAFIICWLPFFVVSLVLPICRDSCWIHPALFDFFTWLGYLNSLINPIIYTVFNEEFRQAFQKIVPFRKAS

[3] = molecular target: Serotonin 1 receptors; 5-HT1B & 5-HT1D (Homo sapiens) (UniProt P28222+P28221); experiment: Binding affinity ratio was evaluated (5-HT1B / 5-HT1D receptor); format: protein assay

Sequence of 5-hydroxytryptamine receptor 1B (P28222 whole entry): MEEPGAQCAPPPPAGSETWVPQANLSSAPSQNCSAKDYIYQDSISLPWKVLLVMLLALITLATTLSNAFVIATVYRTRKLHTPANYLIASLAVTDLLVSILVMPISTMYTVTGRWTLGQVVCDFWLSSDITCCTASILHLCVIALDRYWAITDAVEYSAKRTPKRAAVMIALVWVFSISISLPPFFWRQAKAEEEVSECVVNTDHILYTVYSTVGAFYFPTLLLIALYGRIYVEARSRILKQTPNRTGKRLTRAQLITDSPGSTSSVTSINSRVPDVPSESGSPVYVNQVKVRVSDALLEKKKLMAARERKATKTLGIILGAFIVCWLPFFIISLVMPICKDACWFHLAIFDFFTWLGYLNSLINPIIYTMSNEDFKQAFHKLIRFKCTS

Structure (SMILES)	Ki [1]	Ki [2]	Ratio [3]
Cc1ccc(S(=O)(=O)N2CC=C(c3ccc4[nH]cc(CCN5CCCC5)c4c3)CC2)cc1	140 nM	12 nM	12
COc1ccc(S(=O)(=O)N2CC=C(c3ccc4[nH]cc(CCN5CCCC5)c4c3)CC2)cc1	140 nM	11 nM	13
O=S(=O)(c1ccc(Cl)cc1)N1CC=C(c2ccc3[nH]cc(CCN4CCCC4)c3c2)CC1	110 nM	9.3 nM	12
CN(C)CCc1c[nH]c2ccc(C3=CCN(C)CC3)cc12	–	–	76
C1=C(c2ccc3[nH]cc(CCN4CCCC4)c3c2)CCNC1	760 nM	74 nM	10
O=C(NC12CC3CC(CC(C3)C1)C2)N1CC=C(c2ccc3[nH]cc(CCN4CCCC4)c3c2)CC1	64 nM	29 nM	2.2
O=S(=O)(c1ccccc1)N1CC=C(c2ccc3[nH]cc(CCN4CCCC4)c3c2)CC1	440 nM	21 nM	21

The next lines start with the values.

Ki [1]	Ki [2]	Ratio [3]	Structure (SMILES)
44 nM	7.8 nM	5.6	COc1ccc(NC(=O)N2CC=C(c3ccc4[nH]cc(CCN5CCCC5)c4c3)CC2)cc1
65 nM	8.8 nM	7.6	O=C(Nc1cccc2ccccc12)N1CC=C(c2ccc3[nH]cc(CCN4CCCC4)c3c2)CC1
410 nM	27 nM	15	O=S(=O)(c1cccc2ccccc12)N1CC=C(c2ccc3[nH]cc(CCN4CCCC4)c3c2)CC1
170 nM	29 nM	5.9	S=C(NC12CC3CC(CC(C3)C1)C2)N1CC=C(c2ccc3[nH]cc(CCN4CCCC4)c3c2)CC1
58 nM	6.2 nM	9.3	COc1ccc(NC(=S)N2CC=C(c3ccc4[nH]cc(CCN5CCCC5)c4c3)CC2)cc1
